Test results from publication PMC5788402, “Impact of Target Warhead and Linkage Vector on Inducing Protein Degradation: Comparison of Bromodomain and Extra-Terminal (BET) Degraders Derived from Triazolodiazepine (JQ1) and Tetrahydroquinoline (I-BET726) BET Inhibitor Scaffolds” (Journal of Medicinal Chemistry, 2017).
Where two headings read alike, the source gives them in different places.

What was measured:
Brd4^BD2 = Brd4^BD2 (Homo sapiens, UniProt O60885); experiment: ITC binary titration, Brd4^BD2 into PROTAC; assay type: binding; conditions: Brd4^BD2 in syringe, PROTAC in cell
[1] = target: VHL-EloC-EloB protein (VCB) (Homo sapiens, UniProt P40337); experiment: ITC binary titration, VCB into PROTAC; assay type: binding; conditions: VCB in syringe, PROTAC in cell
[2] = target: VCB / Brd4^BD2 ternary complex (Homo sapiens, UniProt O60885+P40337); experiment: ITC ternary titration, VCB into Brd4^BD2–PROTAC complex; assay type: binding; conditions: for α: cooperativity, ratio between binary and ternary Kd; for α / ΔpKd ± uncertainty: Brd4^BD2; for cooperativity (α) Brd4–BD2: ternary complex formation with VCB and Brd4^BD2, as tabulated in Table 2; for ΔpKd ± uncertainty: ternary vs binary
Brd4 [3] = target: T1, Brd4 (Homo sapiens, UniProt O60885); experiment: Brd4 depletion in MV4;11 (immunoblot); assay type: cell-based; conditions: 50 nM, 4 h
T1 construct: endogenous in cells; host or cells: MV4;11; HL60

cMyc = cMyc depletion in MV4;11 (immunoblot); assay type: cell-based; conditions: 50 nM, 4 h
Brd4 [4] = target: T1, Brd4; experiment: Brd4 depletion in HL60 (immunoblot); assay type: cell-based
Brd2BD1 = Brd2BD1 (Homo sapiens, UniProt P25440); experiment: ITC binary titration, Brd2BD1 into 10; assay type: binding; conditions: Brd2BD1 in syringe
Excerpt: (§1) Bromodomain and VCB complex constructs and protein preparation were described in a previous publication.[5] Wild-type version of human proteins VHL (UniProt accession number P40337), ElonginC (Q15369), ElonginB (Q15370), and the bromodomains of Brd2 (P25440), Brd3 (Q15059), and Brd4 (O60885) were used for all protein expression. In brief, the His6-tagged constructs were transformed into E. coli BL21(DE3) and induced with IPTG to produce the desired proteins. […] After cleaving the His-tag by TEV protease, a second Ni affinity column purification was performed to obtain tag-free protein in the flow-through. VCB was then additionally purified by anion exchange using MonoQ (GE Healthcare). For all proteins, purity was further polished by gel filtration chromatography.
(§2) Titrations were performed on an ITC200 microcalorimeter (GE Healthcare) as previously reported.[5] The titrations were in ITC buffer (20 mM Bis-Tris propane, 150 mM NaCl, 1 mM tris(2-carboxyethyl)phosphine (TCEP), pH 7.4), supplemented with either 0.2% or 3% DMSO and consisted of 19 injections of 2 μL of protein solution at a rate of 0.5 μL/s at 120 s time intervals. An initial injection of protein (0.4 μL) was made and discarded during data analysis. All experiments were performed at 25 °C, while stirring at 600 rpm. PROTACs were diluted from a 10 mM DMSO stock solution to 20 μM in ITC buffer with the final concentration of DMSO to be 0.2% for triazolodiazepine-based PROTAC or 3% for tetrahydroquinoline-based PROTAC. Bromodomain protein in the same buffer was titrated into the PROTAC in the cell. At the end of the titration, the excess of solution was removed from the cell, the syringe was washed and dried, and VCB complex (168 μM, in the same buffer) was loaded in the syringe and titrated into the complex of PROTAC–bromodomain. The concentration of the complex in the cell (C) after the first titration (16.8 μM) was calculated as follows: [drawing 1] where C0 is the initial concentration of the PROTAC in the cell (20 μM), Vcell is the volume of the sample cell (200.12 μL), and Vinj is the volume of titrant injected during the first titration (38.4 μL). Titrations for the binary complex PROTAC–VCB were performed in the same manner with VCB titrated into 16.8 μM PROTAC in the cell. […] The data were fitted to a single-binding-site model to obtain the stoichiometry n, the dissociation constant Kd, and the enthalpy of binding ΔH using the Microcal LLC ITC200 Origin software provided by the manufacturer.
(§3) Table S1. ITC results for the formation of binary and ternary complexes between 10, BET Bromodomain and VCB
(§4) Protein in Species in cell Kd (nM) ΔG (kcal × ΔH (kcal × -TΔS (kcal N α ΔpKd
(§5) Syringe mol-1) mol-1) × mol-1)
(§6) Titrations were performed at 25°C in duplicate except for VCB into 10, which was performed in quadruplicate.
(§7) Values reported are the mean ± s.e.m.

Brd2BD2 = Brd2BD2 (Homo sapiens, UniProt P25440); experiment: ITC binary titration, Brd2BD2 into 10; assay type: binding; conditions: Brd2BD2 in syringe
Excerpt: as §1, §2, §3, §4, §5, §6, §7

Brd3BD1 = Brd3BD1 (Homo sapiens, UniProt Q15059); experiment: ITC binary titration, Brd3BD1 into 10; assay type: binding; conditions: Brd3BD1 in syringe
Excerpt: as §1, §2, §3, §4, §5, §6, §7

Brd3BD2 = Brd3BD2 (Homo sapiens, UniProt Q15059); experiment: ITC binary titration, Brd3BD2 into 10; assay type: binding; conditions: Brd3BD2 in syringe
Excerpt: as §1, §2, §3, §4, §5, §6, §7

Brd4BD1 = Brd4BD1 (Homo sapiens, UniProt O60885); experiment: ITC binary titration, Brd4BD1 into 10; assay type: binding; conditions: Brd4BD1 in syringe
Excerpt: as §1, §2, §3, §4, §5, §6, §7

[5] = target: VCB / Brd2BD1 ternary complex (Homo sapiens, UniProt P25440+P40337); experiment: ITC ternary titration, VCB into Brd2BD1:10; assay type: binding
Excerpt: as §1, §2, §3, §4, §5, §6, §7

[6] = target: VCB / Brd2BD2 ternary complex (Homo sapiens, UniProt P25440+P40337); experiment: ITC ternary titration, VCB into Brd2BD2:10; assay type: binding
Excerpt: as §1, §2, §3, §4, §5, §6, §7

[7] = target: VCB / Brd3BD1 ternary complex (Homo sapiens, UniProt P40337+Q15059); experiment: ITC ternary titration, VCB into Brd3BD1:10; assay type: binding
Excerpt: as §1, §2, §3, §4, §5, §6, §7

[8] = target: VCB / Brd3BD2 ternary complex (Homo sapiens, UniProt P40337+Q15059); experiment: ITC ternary titration, VCB into Brd3BD2:10; assay type: binding
Excerpt: as §1, §2, §3, §4, §5, §6, §7

[9] = target: VCB / Brd4BD1 ternary complex (Homo sapiens, UniProt O60885+P40337); experiment: ITC ternary titration, VCB into Brd4BD1:10; assay type: binding
Excerpt: as §1, §2, §3, §4, §5, §6, §7

[10] = tested on: BET proteins Brd2, Brd3, Brd4; experiment: BET degradation profile in HeLa cells; assay type: cell-based
Brd4 tandem bromodomain = conditions: cited from earlier work
[11] = ternary, VCB in syringe, Brd4^BD2–PROTAC in cell

Brd2BD2, sequence (P25440 344-453 limits assumed): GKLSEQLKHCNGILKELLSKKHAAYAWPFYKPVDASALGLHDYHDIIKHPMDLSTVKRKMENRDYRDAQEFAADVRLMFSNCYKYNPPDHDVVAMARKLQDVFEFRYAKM
Brd2BD1, sequence (P25440 74-180 limits assumed): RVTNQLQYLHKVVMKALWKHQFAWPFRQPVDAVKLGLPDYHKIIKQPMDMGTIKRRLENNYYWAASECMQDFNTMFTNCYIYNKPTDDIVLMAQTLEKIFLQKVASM
Brd3BD2, sequence (Q15059 306-415 limits assumed): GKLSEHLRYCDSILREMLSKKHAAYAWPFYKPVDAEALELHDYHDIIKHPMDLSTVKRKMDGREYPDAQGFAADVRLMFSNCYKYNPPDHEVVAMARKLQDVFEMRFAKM
Brd3BD1, sequence (Q15059 34-140 limits assumed): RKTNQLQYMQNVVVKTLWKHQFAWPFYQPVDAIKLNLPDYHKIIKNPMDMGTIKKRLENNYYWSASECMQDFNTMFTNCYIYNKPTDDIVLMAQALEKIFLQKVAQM

## CC(=O)N1c2ccc(-c3ccc(C(=O)NCCOCCOCC(=O)N[C@H](C(=O)N4C[C@H](O)C[C@H]4C(=O)NCc4ccc(-c5scnc5C)cc4)C(C)(C)C)cc3)cc2[C@H](Nc2ccc(Cl)cc2)C[C@@H]1C [compound 8, (2S,4R)-1-((S)-1-(4-((2S,4R)-1-Acetyl-4-((4-chlorophenyl)amino)-2-methyl-1,2,3,4-tetrahydroquinolin-6-yl)phenyl)-12-(tert-butyl)-1,10-dioxo-5,8-dioxa-2,11-diazatridecan-13-oyl)-4-hydroxy-N-(4-(4-methylthiazol-5-yl)benzyl)pyrrolidine-2-carboxamide]
Brd4^BD2
  stoichiometry N: 0.804 ± 0.003
  ΔG: –11.7 ± 0.4 kcal·mol^–1
  ΔH: –10.0 ± 0.1 kcal·mol^–1
  –TΔS: –1.71 ± 0.43 kcal·mol^–1
[1]
  stoichiometry N: 1.12 ± 0.01
  ΔG: –9.46 ± 0.13 kcal·mol^–1
  ΔH: –4.07 ± 0.07 kcal·mol^–1
  –TΔS: –5.39 ± 0.14 kcal·mol^–1
[2]
  α: 0.2
  cooperativity (α) Brd4–BD2: 0.15
  ΔpKd ± uncertainty: –0.83 ± 0.10
[2]; [11]
  stoichiometry N: 1.07 ± 0.01
  ΔG: –8.33 ± 0.05 kcal·mol^–1
  ΔH: –7.02 ± 0.11 kcal·mol^–1
  –TΔS: –1.31 ± 0.12 kcal·mol^–1
Brd4 [3]
  Brd4 depletion (%) MV4;11: 11/11%
cMyc
  cMyc depletion (%) MV4;11: 11/11%
Brd4 [4]; 50 nM, 4 h, HL60
  Brd4 depletion (%) HL60: –156%

## CC(=O)N1c2ccc(-c3ccc(C(=O)NCCOCCOCCOCCOCC(=O)N[C@H](C(=O)N4C[C@H](O)C[C@H]4C(=O)NCc4ccc(-c5scnc5C)cc4)C(C)(C)C)cc3)cc2[C@H](Nc2ccc(Cl)cc2)C[C@@H]1C [compound 10, (2S,4R)-1-((S)-1-(4-((2S,4R)-1-Acetyl-4-((4-chlorophenyl)amino)-2-methyl-1,2,3,4-tetrahydroquinolin-6-yl)phenyl)-18-(tert-butyl)-1,16-dioxo-5,8,11,14-tetraoxa-2,17-diazanonadecan-19-oyl)-4-hydroxy-N-(4-(4-methylthiazol-5-yl)benzyl)pyrrolidine-2-carboxamide]
Brd4^BD2
  stoichiometry N: 0.86 ± 0.06
[1]
  stoichiometry N: 0.92 ± 0.15
[2]
  α: 0.6
  cooperativity (α) Brd4–BD2: 0.59
  ΔpKd ± uncertainty: –0.22 ± 0.08
[2]; [11]
  stoichiometry N: 0.87 ± 0.02
Brd2BD1
  -TΔS: 1.86 ± 0.02 kcal/mol
  N: 1.00 ±0.08
  ΔG: -10.0 ± 0.2 kcal/mol
  ΔH: -11.9 ± 0.2 kcal/mol
Brd2BD1; 10 in cell, 25°C
  Kd: 45 ± 13 nM
Brd2BD2
  -TΔS: -1.19 ± 0.07 kcal/mol
  N: 0.84 ±0.05
  ΔG: -11.3 ± 0.01 kcal/mol
  ΔH: -10.1 ± 0.1 kcal/mol
Brd2BD2; 10 in cell, 25°C
  Kd: 5 ± 0.1 nM
Brd3BD1
  -TΔS: 3.2 ± 0.2 kcal/mol
  N: 0.98 ±0.04
  ΔG: -10.1 ± 0.1 kcal/mol
  ΔH: -13.3 ± 0.4 kcal/mol
Brd3BD1; 10 in cell, 25°C
  Kd: 39 ± 8 nM
Brd3BD2
  -TΔS: 3.0 ± 0.1 kcal/mol
  N: 1.02 ±0.09
  ΔG: -10.9 ± 0.3 kcal/mol
  ΔH: -13.9 ± 0.4 kcal/mol
Brd3BD2; 10 in cell, 25°C
  Kd: 11 ± 5 nM
Brd4BD1
  -TΔS: 1.6 ± 0.7 kcal/mol
  N: 0.73 ±0.02
  ΔG: -10.3 ± 0.4 kcal/mol
  ΔH: -11.9 ± 0.3 kcal/mol
Brd4BD1; 10 in cell, 25°C
  Kd: 39 ± 24 nM
[5]; cooperativity, Brd2BD1
  α: 0.3
[5]; ternary vs binary, Brd2BD1
  ΔpKd: 0.41 ±0.23
[5]; ternary, VCB into Brd2BD1:10
  -TΔS: -4.19 ± 0.92 kcal/mol
  N: 0.99 ±0.08
  ΔG: -8.95 ± 0.31 kcal/mol
  ΔH: -4.76 ± 0.62 kcal/mol
[6]; cooperativity, Brd2BD2
  α: 0.3
[6]; ternary vs binary, Brd2BD2
  ΔpKd: 0.52 ±0.17
[6]; ternary, VCB in syringe, Brd2BD2:10 in cell, 25°C
  Kd: 384 ± 145 nM
[6]; ternary, VCB into Brd2BD2:10
  -TΔS: -1.02 ± 0.61 kcal/mol
  N: 0.73 ±0.02
  ΔG: -8.80 ± 0.23 kcal/mol
  ΔH: -7.77 ± 0.37 kcal/mol
[7]; cooperativity, Brd3BD1
  α: 0.7
[7]; ternary vs binary, Brd3BD1
  ΔpKd: 0.14 ±0.09
[7]; ternary, VCB in syringe, Brd3BD1:10 in cell, 25°C
  Kd: 152 ± 30 nM
[7]; ternary, VCB into Brd3BD1:10
  -TΔS: -5.18 ± 0.14 kcal/mol
  N: 1.03 ±0.18
  ΔG: -9.31 ± 0.12 kcal/mol
  ΔH: -4.13 ± 0.02 kcal/mol
[8]; cooperativity, Brd3BD2
  α: 0.3
[8]; ternary vs binary, Brd3BD2
  ΔpKd: 0.58 ±0.14
[8]; ternary, VCB in syringe, Brd3BD2:10 in cell, 25°C
  Kd: 434 ± 128 nM
[8]; ternary, VCB into Brd3BD2:10
  -TΔS: -1.37 ± 0.54 kcal/mol
  N: 1.03 ±0.15
  ΔG: -8.71 ± 0.18 kcal/mol
  ΔH: -7.33 ± 0.36 kcal/mol
[9]; cooperativity, Brd4BD1
  α: 0.5
[9]; ternary vs binary, Brd4BD1
  ΔpKd: 0.29 ±0.14
[9]; ternary, VCB in syringe, Brd4BD1:10 in cell, 25°C
  Kd: 221 ± 65 nM
[9]; ternary, VCB into Brd4BD1:10
  -TΔS: -6.63 ± 0.09 kcal/mol
  N: 0.70 ±0.07
  ΔG: -9.11 ± 0.18 kcal/mol
  ΔH: -2.47 ± 0.09 kcal/mol
[10]
  window of concentration for selective degradation of BRD3/4: 30 to 100 nM
[10]; 24 h
  concentration with increased levels of BET proteins (hook effect): 1 to 10 µM
  intra-BET degradation selectivity: depletion selectivity for Brd4 and Brd3 over Brd2

## CC(=O)N1c2ccc(-c3ccc(C(=O)O)cc3)cc2[C@H](Nc2ccc(Cl)cc2)C[C@@H]1C [compound 4]
Brd4 [4]; 50 nM, 4 h, HL60
  Brd4 depletion (%) HL60: –157%
Brd4 tandem bromodomain
  Kd: 4 nM

## Cc1sc2c(c1C)C(c1ccc(Cl)cc1)=N[C@@H](CC(=O)OC(C)(C)C)c1nnc(C)n1-2 [compound 3]
Brd4 [4]
  Brd4 depletion (%) HL60: –243/20%
